Legend:
NSCLC A549 = test: In vivo efficacy, Mouse Xenograft Model (lung cancer A549); settings: 50 mg/kg i.p. daily for 14 days then another 7 days, tumors weighed day 43, vs control group, FIG. 3
Procedure: The administered compounds were tested in vivo in the mouse xenograft model bearing human cancer cells. Briefly, female athymic nude mice strain NCRNU-M (5-10 weeks old, 20-25 grams in weight; Taconic, Germantown, N.Y.) was maintained in pathogen-free conditions. Three human cancer cell lines: NSCLC A549, melanoma MelJuso, and mesothelioma MS-1 were used. Five or ten mice were used in each group and injected s.c. with 3×10^6 cancer cells in the dorsal area in a volume of 100 μl. After inoculation, human cancer cells were allowed to grow in mice for 10-13 days to become visible tumor nodules. Animals were then injected with a compound of the embodiments at a dose of 50 mg/kg body weight (1 mg/mouse per day). Vehicle alone was used as control. The compounds and controls were adjusted in 40 ul volume for i.p. injection in the abdomens of the mice. Injections were performed daily around the same time for 14 days. […] Tumor size was measured every three to four days, and tumor volumes were calculated using width (x) and length (y) (x^2y/2, where x<y). Throughout this period, general toxicity of the treatments was also monitored by measuring body weight of the mice. […]
In vivo efficacy study of Compounds 1 and 4 in Mouse Xenograft Model (NSCLC A549) was examined. […] 43 days after the initial tumor inoculation, tumors were dissected from the mice of each group and their weights were measured using a scale. […]

[1] = tested on: Hedgehog signaling pathway; test: Quantitative real-time RT-PCR of Hh pathway genes in xenograft tumors; format: in vivo, mouse; settings: Melanoma tumor (MelJuso) xenograft, pooled tumor from two mice, FIG. 4
Procedure: (§1) Total RNA was isolated using Qiagen RNeasy Mini Kit (Valencia, Calif.). Hybridization probes and primers (Table 1) were purchased from Applied Biosystems (ABI, Foster City, Calif.). cDNA synthesis and Taqman® PCR were performed according to the manufactures' protocols. The gene expression was assayed in triplicate in ABI 7300 Real-time PCR System. Samples were normalized to their housekeeping gene GAPDH and then calculated by using 2^−dCt method.
To examine whether Compounds 1, 2, 4, and 6 suppressed tumor growth through inhibition of the Hedgehog signaling pathway in vivo, expression of the key components and direct target genes of the Hh pathway (e.g. Gli1, Gli2, Gli3, HHIP and Cyclin D1) were analyzed by quantitative real-time RT-PCR using total RNA isolated from the xenograft tumors. GAPDH served as a control. This RT-PCR analysis was performed using a “pooled” tumor from two randomly selected mice of each group with reasonable size tumors. […] The results are shown in FIG. 4, where C is control and V is vehicle.

[2] = Preliminary in vivo toxicity: leukocyte population and body weight after in vivo treatment; parameters: species or system mouse; settings: mice; for Changes of leukocyte population: at completion of the in vivo studies, FIG. 5; for Loss of body weight: during the course of drug administration, FIG. 6
Procedure: (§2) The administered compounds were tested in vivo in the mouse xenograft model bearing human cancer cells. Briefly, female athymic nude mice strain NCRNU-M (5-10 weeks old, 20-25 grams in weight; Taconic, Germantown, N.Y.) was maintained in pathogen-free conditions. Three human cancer cell lines: NSCLC A549, melanoma MelJuso, and mesothelioma MS-1 were used. Five or ten mice were used in each group and injected s.c. with 3×10^6 cancer cells in the dorsal area in a volume of 100 μl. After inoculation, human cancer cells were allowed to grow in mice for 10-13 days to become visible tumor nodules. Animals were then injected with a compound of the embodiments at a dose of 50 mg/kg body weight (1 mg/mouse per day). Vehicle alone was used as control. The compounds and controls were adjusted in 40 ul volume for i.p. injection in the abdomens of the mice. Injections were performed daily around the same time for 14 days. Tumors were allowed to grow for 1-2 additional weeks after completion of the compound treatments. Tumor size was measured every three to four days, and tumor volumes were calculated using width (x) and length (y) (x^2y/2, where x<y). Throughout this period, general toxicity of the treatments was also monitored by measuring body weight of the mice. Data was presented as mean values (±S.D.).
(§3) After the in vivo studies were completed, different organs were resected from mice. These organs included liver, lung, heart, kidney, intestines, ovary, brain, spleen, skin, and muscle. The specimens were fixed in 4% buffered formaldehyde, embedded in paraffin, sectioned, and histologically analyzed by hematoxylin and eosin (HE) staining. The HE stained slides were examined by a mouse pathologist for toxicity evidence from all the organs as compared with vehicle controls. In addition, leukocytes (WBC: white blood cell, NE: neutrophil, LY: lymphocyte, MO: monocyte, EO: eosinophil, BA: basophil) from each animal from all treatment groups were collected and leukocyte population was counted through a blood cell counter.
(§4) As preliminary in vivo toxicity study of Compounds 1, 2, 4, and 6, it was examined if there were changes of leukocyte population and loss of body weight in the mice after the treatment. At the completion of the in vivo studies as described herein, leukocytes (WBC: white blood cell, NE: neutrophil, LY: lymphocyte, MO: monocyte, EO: eosinophil, BA: basophil) from each animal from all treatment groups were collected and leukocyte population was counted through a blood cell counter. Body weights of control groups (n=10) and the treated group (n=10) were measured using a scale during the course of drug administration. […] In an additional toxicity study, effect of different doses of compounds 4 and 6 on the body weight of mice was examined. The compounds were i.p. injected in the abdomens at 3 different doses: 25, 50, and 100 mg/kg body weight to mice (3 mice per dosing group) for 6 consecutive days.

[3] = Histological examination (H&E) of organs for toxicity; format: in vivo; settings: mice, i.p. two doses daily for 6 days, FIGS. 8-11
From the text: as §3
To analyze toxicity of the Compounds 1, 2, 4, and 6 in vivo, each group (three mice) was i.p. injected with two doses of each Compound daily for 6 days, and then major mouse organs, such as liver, spleen, kidney, and heart were resected from the mice. The specimens will be fixed in 4% buffered formaldehyde, embedded in paraffin, sectioned and histologically analyzed by hematoxylin and eosin (H&E) staining.

mesothelioma MS-1 = test: In vivo efficacy, Mouse Xenograft Model (mesothelioma MS-1); settings: MS-1 xenograft, 50 mg/kg i.p. daily for 14 days, vs control group, FIG. 2
Procedure: as §2, with “Data was presented as mean values (±S.D.).” left out
Model (Mesothelioma MS-1). […] Tumor sizes was measured twice weekly until the completion of the experiments. […]

Wnt signaling pathway = test: Quantitative real-time RT-PCR of Wnt pathway genes in xenograft tumors; format: in vivo, mouse; settings: Melanoma tumor xenograft, compared to controls, FIG. 4
Procedure: as §1
To examine whether Compounds 1, 2, 4, and 6 suppressed tumor growth through inhibition of the Wnt signaling pathway in vivo, expression of the key components and direct target genes of the Wnt pathway (e.g. Wnt2, Axin2, EGFR, and Cyclin D1) were analyzed by quantitative real-time RT-PCR using total RNA isolated from the xenograft tumors. GAPDH served as a control. This RT-PCR analysis was performed using a “pooled” tumor from two randomly selected mice of each group with reasonable size tumors. […] The results are shown in FIG. 4, where C is control and V is vehicle.

melanoma MelJuso = test: In vivo efficacy, Mouse Xenograft Model (melanoma MelJuso); settings: 50 mg/kg i.p. daily for 14 days, FIG. 1; for Tumor growth after treatment: vs vehicle
Procedure: as §2
In vivo efficacy study of Compounds 1, 2, 4, and 6 were performed using a Mouse Xenograft Model (Melanoma MelJuso). Mice were injected s.c. with 3×10^6 cells in the dorsal area in a volume of 100 μl. 13 days after inoculation, the mice started receiving treatments with the administered compound at a dose of 50 mg/kg body weight daily for 14 days (n=10). Vehicle alone was used as control (n=10). The administered compounds and vehicle were adjusted in a volume of 40 μl for i.p. injection in the abdomens of the mice. Tumor size and tumor volumes were calculated as described above.

[4] = Additional toxicity study: body weight at different doses; format: in vivo, mouse; settings: mice, i.p. 25, 50 and 100 mg/kg for 6 consecutive days, FIG. 7
Procedure: Each dosing group contained 3 mice. The body weight of mice was measured using a scale. Results are the means±SD (error bars).
as §4

human NSCLC cell lines = test: Combination treatment, MTS cell proliferation assay, NSCLC cell lines; format: cell-based; settings: lung cancer cells, 72 hours, Combination Index
From the text: (§5) Another assay for determining the number of viable cells in proliferation or cytotoxicity assays is the MTS assay, a colorimetric method. MTS assay reagents are commercially available (Promega Corp., Madison, Wis.). The reagent contains a tetrazolium compound [3-(4,5-dimethylthiazol-2-yl)-5-(3-carboxymethoxyphenyl)-2-(4-sulfophenyl)-2H-tetrazolium, inner salt; MTS] and an electron coupling reagent (phenazine ethosulfate; PES). PES has enhanced chemical stability, which allows it to be combined with MTS to form a stable solution. The MTS tetrazolium compound (Owen's reagent) is bioreduced by cells into a colored formazan product that is soluble in tissue culture medium. This conversion may be accomplished by NADPH or NADH produced by dehydrogenase enzymes in metabolically active cells. The quantity of formazan product as measured by the absorbance at 490 nm is directly proportional to the number of living cells in culture. Because the MTS formazan product is soluble in tissue culture medium, this assay requires fewer steps than procedures that use tetrazolium compounds such as MTT. The formazan product of MTT reduction is a crystalline precipitate that requires an additional step in the procedure to dissolve the crystals before recording absorbance readings at 570 nm.
(§6) Combination treatments of the Compounds with several chemotherapies: erlotinib (Tarceva®), PI3K inhibitor LY294002, TGFβ inhibitor SB431542, and pemetrexed (Alimta®) were performed in human NSCLC and MM cell lines (FIGS. 12-17). In all experiments, NSCLC and MM cell lines were treated with different doses of each compound or combination for 72 hours, and MTS assays were performed to determine the cell proliferations. Combination Index (CI), calculated by CalcuSyn software (Biosoft, Cambridge, UK), was applied to describe the effect of the combination effects of two compounds, where CI<1 indicates Synergism, CI=1 indicates Additive effects, and CI>1 indicates Antagonism. Student's t-tests were applied for statistical analysis.

[5] = tested on: human MM cell lines (mesothelioma cells); test: Combination treatment, MTS cell proliferation assay, MM (mesothelioma) cell lines; format: cell-based; settings: 72 hours, Combination Index
From the text: as §5, §6

Row | SMILES | Tumor weight after treatment (NSCLC A549) | Hh signaling (expression of Gli1, Gli2, Gli3, HHIP, Cyclin D1) in tumor [1] | Changes of leukocyte population [2] | Loss of body weight [2] | Toxicity in organs (liver, spleen, kidney, heart), H&E histology [3] | Tumor weight after treatment (mesothelioma MS-1) | Expression of the key indicator of canonical Wnt activation in tumor (Wnt signaling pathway) | Tumor weight after treatment (melanoma MelJuso) | Tumor growth after treatment (melanoma MelJuso) | Loss of body weight [4] | Combination effect with PI3K inhibitor LY294002 (human NSCLC cell lines; FIG. 14) | Combination effect with TGFβ inhibitor SB431542 (human NSCLC cell lines; FIG. 16) | Combination effect with PI3K inhibitor LY294002 ([5]; FIG. 15) | Combination effect with pemetrexed (Alimta) ([5]; FIG. 17)
1 | CC(C)(CO)CCCNC(=O)C1C(c2ccccc2)=NN(c2ccccc2)C1c1ccsc1 (stereo not drawn) [Compound 1, 1,3-diphenyl-5-thiophen-3-yl-4,5-dihydro-1H-pyrazole-4-carboxylic acid (5-hydroxy-4,4-dimethyl-pentyl)-amide] | significantly decreased | inhibited | No noticeable changes | No noticeable changes of leukocyte population or loss of the body weight | No noticeable toxicity | significantly decreased | significantly down-regulated | significantly decreased | dramatically suppressed |  |  |  |  | 
2 | O=C(NCc1ccc(O)cc1)C1C(c2ccccc2)=NN(c2ccccc2)C1c1ccccc1 (stereo not drawn) [Compound 2, 1,3,5-triphenyl-4,5-dihydro-1H-pyrazole-4-carboxylic acid 4-hydroxy-benzylamide] |  | inhibited | No noticeable changes | No noticeable changes of leukocyte population or loss of the body weight | No noticeable toxicity |  | significantly down-regulated | significantly decreased | dramatically suppressed |  |  |  |  | 
3 | CC(C)(CO)CCCNC(=O)C1C(c2ccc(F)cc2)=NN(c2ccccc2)C1c1cccc(F)c1 (stereo not drawn) [Compound 6, 3-(4-fluoro-phenyl)-5-(3-fluoro-phenyl)-1-phenyl-4,5-dihydro-1H-pyrazole-4-carboxylic acid (5-hydroxy-4,4-dimethyl-pentyl)-amide] |  | inhibited | No noticeable changes | No noticeable changes of leukocyte population or loss of the body weight | No noticeable toxicity |  |  | significantly decreased | dramatically suppressed | no noticeable loss | synergy | synergy | synergy | synergy

Source: US9370521B2, “Targeting GLI proteins in human cancer by small molecules” (The Regents of the University of California, priority 2011, dated 2016)
